The values that follow come from patent EP1100482B1, “USE OF CALIX(N)ARENES IN THE MANUFACTURE OF A MEDICAMENT FOR TREATING FIBROTIC DISEASES” (CENTRE NATIONAL DE LA RECHERCHE SCIENTIFIQUE, priority 1998, dated 2000).

SMILES strings stand for the structures. Positions count from the first letter of the chain named.

Experiment [1] addresses T1, lysyl oxydase (Homo sapiens, UniProt P28300).
T1 sequence (P28300 169-417): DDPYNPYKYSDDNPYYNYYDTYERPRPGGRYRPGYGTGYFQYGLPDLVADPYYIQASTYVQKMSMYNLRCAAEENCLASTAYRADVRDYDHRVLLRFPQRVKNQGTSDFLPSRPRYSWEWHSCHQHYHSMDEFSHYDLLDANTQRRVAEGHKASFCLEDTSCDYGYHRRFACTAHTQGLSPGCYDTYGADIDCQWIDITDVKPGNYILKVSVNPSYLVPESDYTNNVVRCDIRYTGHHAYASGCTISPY
The note with it: specific lysyl oxidase inhibitor described in the literature (Kagan, 1994); cited from earlier work.

The target in experiment [2] is T2, lysyl-oxydase d'aorte bovine (Bos taurus, UniProt P33072).
T2 construct: De l'aorte bovine foetale broyée est rincée par du tampon NaCI 0,12M; from tissue; host or cells: fetal bovine aorta
T2 sequence (P33072 170-418): T1 sequence (P28300 169-417) with S10T, G29S, A49P, S64A, T80S, A84X, N142S, G188N, T224S, D231E
The experiment can be described thus: Lysyl oxidase activity assay (tritium release from 3H elastin). It counts as biochemical. The conditions noted are these: partially purified lysyl oxidase from fetal bovine aorta; 3H élastine substrate; 37°C; pH 8,0; read-out: concentration nécessaire pour inhiber 50% de l'activité de lysyl-oxydase. Here is the method: 1. Purification partielle de la lysyl-oxydase d'aorte bovine
Ce protocole est inspiré de celui de (WILLIAMS et KAGAN, Anal. Biochem. 149, 430-437, 1985), et de (KAGAN et al. Biochem. J. 177, 203-214 (1979)), qui a été sensiblement modifié.
Toutes les étapes sont effectuées à 4 °C ou dans la glace.
De l'aorte bovine foetale broyée est rincée par du tampon NaCI 0,12M, NaPi 16 mM, pH 7,7 puis par du NaPi 16 mM, pH 7,7 (tampon PB). La lysyl oxydase est extraite du résidu par de l'urée 4 M (concentration finale dans le tampon PB). Le surnageant obtenu après centrifugation à 10.000 g pendant 30 minutes est dilué deux fois dans du PB puis incubé avec de la DEAE-cellulose pendant 3 heures. La résine est mise en colonne et rincée successivement par du tampon PB contenant de l'urée 2M , du tampon PB puis du tampon PB contenant du NaCI 0,4 M.
La lysyl oxydase est éluée à partir de la DEAE-cellulose par de l'urée 6M dans du tampon PB. Les fractions présentant une absorbance à 280 nm sont réunies et dialysées pendant une nuit contre du tampon PB en présence de gel de Bleu de Cibacron (Biorad). Le gel est ensuite mis en colonne, et après des rinçages successifs par du tampon PB, du tampon PB-NaCI 1M et à nouveau du tampon PB, la lysyl oxydase est éluée du gel de Bleu de Cibacron par de l'urée 6 M dans du tampon PB. […]

As to `N#CCCN` [βAPN, β amino-propionitrile], in experiment [1], the Ki – broadly, the equilibrium dissociation constant of an inhibitor or competing ligand from its target – was 6 µM. Regarding `O=S(=O)(O)c1cc2c(O)c(c1)Cc1cc(S(=O)(=O)O)cc(c1O)Cc1cc(S(=O)(=O)O)cc(c1O)Cc1cc(S(=O)(=O)O)cc(c1O)Cc1cc(S(=O)(=O)O)cc(c1O)Cc1cc(S(=O)(=O)O)cc(c1O)C2`, the IC50 in experiment [2] was determined as 1200 µM.
